Measured values from the NIST ThermoML archive (doi:10.1016/j.jct.2007.04.002).

Experiments:
[1] = excess molar enthalpy (molar enthalpy of mixing); xn = mol fraction of the nth substance listed; settings: 101 kPa, Liquid, Calvet calorimetry
[2] = 298.15 K; 101.33 kPa; Liquid; Not reported.

CCCCCC [hexane] + FC(F)(F)C(F)(F)C(F)(F)C(F)(F)C(F)(F)C(F)(F)F
Settings	excess molar enthalpy [kcal/mol]
[1], 298.15 K, x2 = 0	0

FC(F)(F)C(F)(F)C(F)(F)C(F)(F)C(F)(F)C(F)(F)C(F)(F)C(F)(F)F [octadecafluorooctane] + CCCCCC
[1], 298.15 K
Settings	excess molar enthalpy [kcal/mol]
x1 = 0.05	0.183
x1 = 0.1	0.303
x1 = 0.15	0.379
x1 = 0.2	0.422
x1 = 0.25	0.445
x1 = 0.3	0.455
x1 = 0.35	0.456
x1 = 0.4	0.453
x1 = 0.45	0.448
x1 = 0.5	0.44
x1 = 0.55	0.43
x1 = 0.6	0.415
x1 = 0.65	0.394
x1 = 0.7	0.366
x1 = 0.75	0.327
x1 = 0.8	0.279
x1 = 0.85	0.22
x1 = 0.9	0.152
x1 = 0.95	0.0767
x1 = 1	0

FC(F)(F)C(F)(F)C(F)(F)C(F)(F)C(F)(F)C(F)(F)F [perfluorohexane] + C1CCCCC1
[1], 298.15 K
Settings	excess molar enthalpy [kcal/mol]
x1 = 0.05	0.177
x1 = 0.1	0.301
x1 = 0.15	0.385
x1 = 0.2	0.44
x1 = 0.25	0.475
x1 = 0.3	0.498
x1 = 0.35	0.513
x1 = 0.4	0.522
x1 = 0.45	0.528
x1 = 0.5	0.53
x1 = 0.55	0.528
x1 = 0.6	0.519
x1 = 0.65	0.503
x1 = 0.7	0.476
x1 = 0.75	0.436
x1 = 0.8	0.382
x1 = 0.85	0.311
x1 = 0.9	0.224
x1 = 0.95	0.12
x1 = 1	0

C1CCCCC1 [cyclohexane]
Settings	molar volume [m3/mol]
[2]	0.0001086

CCCCCC [hexane] + FC(F)(F)C(F)(F)C(F)(F)C(F)(F)C(F)(F)C(F)(F)C(F)(F)F
Settings	excess molar enthalpy [kcal/mol]
[1], 298.15 K, x2 = 0	0

FC(F)(F)C(F)(F)C(F)(F)C(F)(F)C(F)(F)C(F)(F)F [perfluorohexane] + CCCCCCCC
[1], 298.15 K
Settings	excess molar enthalpy [kcal/mol]
x1 = 0.05	0.137
x1 = 0.1	0.24
x1 = 0.15	0.315
x1 = 0.2	0.368
x1 = 0.25	0.404
x1 = 0.3	0.428
x1 = 0.35	0.443
x1 = 0.4	0.452
x1 = 0.45	0.457
x1 = 0.5	0.458
x1 = 0.55	0.457
x1 = 0.6	0.452
x1 = 0.65	0.442
x1 = 0.7	0.426
x1 = 0.75	0.401
x1 = 0.8	0.363
x1 = 0.85	0.309
x1 = 0.9	0.234
x1 = 0.95	0.133
x1 = 1	0

FC(F)(F)C(F)(F)C(F)(F)C(F)(F)C(F)(F)C(F)(F)F [perfluorohexane] + CCCCCC(C)C
[1], x1 = 1
Settings	excess molar enthalpy [kcal/mol]
288.05 K	0
298.15 K	0

CCCCCC(C)C [2-methylheptane] + FC(F)(F)C(F)(F)C(F)(F)C(F)(F)C(F)(F)C(F)(F)F
excess molar enthalpy [kcal/mol], [1]
Settings	288.05 K	298.15 K
x2 = 0	0	0
x2 = 0.05	0.124	0.129
x2 = 0.1	0.223	0.231
x2 = 0.15	0.3	0.313
x2 = 0.2	0.359	0.376
x2 = 0.25	0.404	0.425
x2 = 0.3	0.438	0.462
x2 = 0.35	0.462	0.488
x2 = 0.4	0.478	0.506
x2 = 0.45	0.488	0.516
x2 = 0.5	0.491	0.52
x2 = 0.55	0.488	0.516
x2 = 0.6	0.478	0.505
x2 = 0.65	0.461	0.487
x2 = 0.7	0.436	0.46
x2 = 0.75	0.401	0.422
x2 = 0.8	0.354	0.372
x2 = 0.85	0.293	0.307
x2 = 0.9	0.216	0.226
x2 = 0.95	0.119	0.124

CCCCCCC [heptane] + FC(F)(F)C(F)(F)C(F)(F)C(F)(F)C(F)(F)C(F)(F)F
Settings	excess molar enthalpy [kcal/mol]
[1], 298.15 K, x2 = 0	0
